Data set [1] addresses T1, Macrophage migration inhibitory factor (Homo sapiens) (UniProt P14174).
T1 sequence (whole entry): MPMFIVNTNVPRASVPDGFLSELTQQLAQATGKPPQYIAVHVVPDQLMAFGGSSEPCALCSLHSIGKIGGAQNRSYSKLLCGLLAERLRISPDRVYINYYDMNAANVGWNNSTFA
The data set can be described thus: Inhibition of human purified MIF tautomerase activity at 100 uM after 30 mins.

Data set [2] has as its system PBMC. The data set can be described thus: Antiinflammatory activity in human PBMC assessed as inhibition of MIF-induced TNFalpha production at 100 uM after 21 hrs by ELISA. It is filed as functional. For orientation: In an ELISA, binding on a coated surface is turned into a signal by an enzyme label.
For data set [3], the system named is PBMC. The data set can be described thus: Antiinflammatory activity in human PBMC assessed as inhibition of MIF-induced IL1-beta production at 100 uM after 21 hrs by ELISA. It is filed as functional.
Data set [4] deals with PBMC. The data set is described as follows: Antiinflammatory activity in human PBMC assessed as inhibition of MIF-induced IL-6 production at 100 uM after 21 hrs by ELISA. It is filed as functional.
The target of data set [5] is T1, Macrophage migration inhibitory factor (Homo sapiens). The data set is described as follows: Inhibition of MIF in human PBMC assessed as MIF secretion at 100 uM after 5 hrs by ELISA.
Data set [6] in a line: Cytotoxicity against human PBMC assessed as cell viability measured during cytokines production assay at 100 uM after 21 hrs by MTS assay. The class given is cell-based. To be noted: PBMC (peripheral blood mononuclear cells). In general terms: Tetrazolium assays rely on reduction of a dye to a coloured formazan, in cell work by metabolically active cells.
Data set [7] is described as follows: Cytotoxicity against human PBMC assessed as cell viability measured during MIF secretion assay at 100 uM after 21 hrs by MTS assay. It is filed as cell-based. The following applies: PBMC (peripheral blood mononuclear cells).
Data set [8] has as its target T1, Macrophage migration inhibitory factor (Homo sapiens). The data set can be described thus: Inhibition of human purified MIF tautomerase activity at 10 uM after 30 mins.
Data set [9] has as its system PBMC. The data set can be described thus: Antiinflammatory activity in human PBMC assessed as inhibition of MIF-induced IL-6 production at 30 uM after 21 hrs by ELISA. It is filed as functional.
The target of data set [10] is T1, Macrophage migration inhibitory factor (Homo sapiens). The data set can be described thus: Inhibition of MIF in human PBMC assessed as MIF secretion at 10 uM after 5 hrs by ELISA.

For the molecule `CC1(C(=O)O)CC(c2cn(-c3cccc(C(F)(F)F)c3)c3ccccc23)=NO1` (stereo not given), the inhibition in data set [1] amounted to 17%; in [5] it was 14%; in [8], 2%; in data set [10] it was 41%. In addition, the inhibition at 100 µM in the data set with PBMC [2] came out at 39%; in the data set with PBMC [3], 54%; with PBMC [4], 45%. Further, the cytotoxicity at 21 h, 100 µM in [6] was found to be 14%; in [7], 2%. Also, the inhibition at 30 µM in the data set with PBMC [9] was 18%.
`COC(=O)CC1CC(c2ccc(O)cc2)=NO1` (stereo not given): the inhibition is 59% in data set [1], 87% in data set [5], 8% in [8] and 35% in [10]. Moreover, the inhibition at 100 µM worked out at 35% in the data set on PBMC [2], 34% in the data set on PBMC [3] and 12% in the data set with PBMC [4]. Moreover, the cytotoxicity at 21 h, 100 µM in data set [6] worked out at 10%; in data set [7], 8%. Also, the inhibition at 30 µM in the data set with PBMC [9] amounted to 11%.
Consider `Fc1ccc(C2CC(c3ccoc3)=NO2)cc1` (stereo not given), for which the inhibition was determined as 41% in [1], 51% in data set [5], 0% in [8] and 0% in data set [10]. The inhibition at 100 µM turned out to be 0% in the data set on PBMC [2], 47% in the data set with PBMC [3] and 15% with PBMC [4]. The cytotoxicity at 21 h, 100 µM in data set [6] was 4%; in data set [7], 0%. The inhibition at 30 µM with PBMC [9] stood at 0%.
For the molecule `c1ccc2c(c1)ccn2CC1CC(c2ccoc2)=NO1` (stereo not given), the inhibition in data set [1] was found to be 100%; in [5], 95%; in data set [8], 26%; in data set [10], 68%. Besides, the inhibition at 100 µM in the data set on PBMC [2] was determined as 30%; in the data set on PBMC [3] it was 19%; with PBMC [4], 6%. Also, the results for the cytotoxicity at 21 h, 100 µM in data set [6] and in data set [7] were 6% and 0%, respectively. For the same molecule, the inhibition at 30 µM in the data set with PBMC [9] was found to be 0%.
For the molecule `FC(F)(F)c1ccc(C2CC(c3ccoc3)=NO2)cc1` (stereo not given), the inhibition in data set [1] was 41%; in data set [5], 60%; in [8], 15%; in [10], 31%. The inhibition at 100 µM with PBMC [2] was 76%; in the data set with PBMC [3], 67%; in the data set on PBMC [4] it was 50%. Further, the results for the cytotoxicity at 21 h, 100 µM in data set [6] and in data set [7] were 17% and 9%, respectively. The inhibition at 30 µM with PBMC [9] was found to be 23%.
`O=C1c2ccccc2C(=O)N1C1CC(c2cn(-c3cccc(C(F)(F)F)c3)c3ccccc23)=NO1` (stereo not given): the inhibition turned out to be 47% in [1], 0% in data set [5], 8% in data set [8] and 0% in [10]. Besides, the values for the inhibition at 100 µM in the data set with PBMC [2], in the data set with PBMC [3] and in the data set on PBMC [4] were 63%, 43% and 24%, respectively. In addition, the cytotoxicity at 21 h, 100 µM was 11% in [6] and 0% in data set [7]. Besides, in the data set on PBMC [9], the inhibition at 30 µM is 6%.
As to `CC(C)(C)C(=O)OC1CC(c2cn(-c3cccc(C(F)(F)F)c3)c3ccccc23)=NO1` (stereo not given), the inhibition in data set [1] amounted to 100%; in data set [5], 5%; in [8] it was 15%; in data set [10], 0%. Besides, the inhibition at 100 µM in the data set on PBMC [2] is 0%; in the data set on PBMC [3] it was 15%; in the data set on PBMC [4], 12%. Further, the cytotoxicity at 21 h, 100 µM was determined as 15% in data set [6] and 0% in data set [7]. The inhibition at 30 µM in the data set on PBMC [9] is 10%.
With `c1ccc(C2CC(c3ccoc3)=NO2)cc1` (stereo not given), the inhibition was 59% in data set [1], 68% in data set [5], 17% in data set [8] and 37% in data set [10]. Moreover, the inhibition at 100 µM with PBMC [2] was determined as 50%; in the data set on PBMC [3], 31%; with PBMC [4], 14%. Besides, the cytotoxicity at 21 h, 100 µM turned out to be 16% in data set [6] and 0% in data set [7]. The inhibition at 30 µM in the data set with PBMC [9] came out at 5%.
In the case of `FC(F)(F)c1cccc(-n2cc(C3=NOC(CN4CCOCC4)C3)c3ccccc32)c1` (stereo not given), the inhibition came to 100% in [1], 0% in [5], 10% in [8] and 0% in data set [10]. Also, the inhibition at 100 µM is 42% in the data set on PBMC [2], 51% with PBMC [3] and 36% with PBMC [4]. Besides, the cytotoxicity at 21 h, 100 µM in data set [6] was found to be 10%; in data set [7] it was 65%. For the same molecule, the inhibition at 30 µM in the data set on PBMC [9] came out at 22%.
Regarding `O=C1CCCN1C1CC(c2ccoc2)=NO1` (stereo not given), the inhibition in [1] was found to be 18%; in data set [5], 36%; in [8], 0%; in data set [10], 0%. Besides, the inhibition at 100 µM in the data set on PBMC [2] came out at 28%; in the data set with PBMC [3] it was 22%; in the data set with PBMC [4], 49%. Also, the cytotoxicity at 21 h, 100 µM in data set [6] stood at 5%; in data set [7], 0%. Also, in the data set on PBMC [9], the inhibition at 30 µM stood at 43%.
`O=C1c2ccccc2C(=O)N1C1CC(c2ccoc2)=NO1` (stereo not given): the inhibition in data set [1] was 0%; in data set [5], 83%; in data set [8], 0%; in data set [10], 49%. In addition, the inhibition at 100 µM in the data set on PBMC [2] came out at 26%; in the data set on PBMC [3] it was 12%; in the data set with PBMC [4], 13%. Also, the cytotoxicity at 21 h, 100 µM in data set [6] is 12%; in data set [7] it was 0%. The inhibition at 30 µM in the data set with PBMC [9] was 9%.

As a reminder, the inhibition is the percentage by which the read-out fell short of the control.

The values above are taken from ChEMBL document CHEMBL1681642, “Synthesis and biological activity of novel MIF antagonists” (Bioorg Med Chem Lett, 2011).
